Experimental data: patent US20260285856A1, “A 1,5-DIHYDRO-4H-PYRROLO[3,2-C] PYRIDIN-4-ONE FOR USE IN THE TREATMENT OF CANCER” (ANTARES THERAPEUTICS, INC., priority 2023, published 2026)

What was measured:
Assay type in all cases: cell-based
[1] = target: T1, EGFR exon 20 ASV Ins V769_D770 (Homo sapiens, UniProt P00533, INS769ASV); test: Ba/F3 cell viability (CellTiter-Glo), EGFR exon 20 ASV insertion; settings: Ba/F3 cells expressing EGFR exon 20 ASV Ins V769_D770, 72 hours, read-out: BaF3 ASV IC50
T1 construct: expressed in transfected cells; host or cells: Ba/F3 (murine pro-B cells), retroviral transduction, puromycin selection, IL3 withdrawal
T1 sequence (P00533 with tags, fused parts or gaps INS769ASV): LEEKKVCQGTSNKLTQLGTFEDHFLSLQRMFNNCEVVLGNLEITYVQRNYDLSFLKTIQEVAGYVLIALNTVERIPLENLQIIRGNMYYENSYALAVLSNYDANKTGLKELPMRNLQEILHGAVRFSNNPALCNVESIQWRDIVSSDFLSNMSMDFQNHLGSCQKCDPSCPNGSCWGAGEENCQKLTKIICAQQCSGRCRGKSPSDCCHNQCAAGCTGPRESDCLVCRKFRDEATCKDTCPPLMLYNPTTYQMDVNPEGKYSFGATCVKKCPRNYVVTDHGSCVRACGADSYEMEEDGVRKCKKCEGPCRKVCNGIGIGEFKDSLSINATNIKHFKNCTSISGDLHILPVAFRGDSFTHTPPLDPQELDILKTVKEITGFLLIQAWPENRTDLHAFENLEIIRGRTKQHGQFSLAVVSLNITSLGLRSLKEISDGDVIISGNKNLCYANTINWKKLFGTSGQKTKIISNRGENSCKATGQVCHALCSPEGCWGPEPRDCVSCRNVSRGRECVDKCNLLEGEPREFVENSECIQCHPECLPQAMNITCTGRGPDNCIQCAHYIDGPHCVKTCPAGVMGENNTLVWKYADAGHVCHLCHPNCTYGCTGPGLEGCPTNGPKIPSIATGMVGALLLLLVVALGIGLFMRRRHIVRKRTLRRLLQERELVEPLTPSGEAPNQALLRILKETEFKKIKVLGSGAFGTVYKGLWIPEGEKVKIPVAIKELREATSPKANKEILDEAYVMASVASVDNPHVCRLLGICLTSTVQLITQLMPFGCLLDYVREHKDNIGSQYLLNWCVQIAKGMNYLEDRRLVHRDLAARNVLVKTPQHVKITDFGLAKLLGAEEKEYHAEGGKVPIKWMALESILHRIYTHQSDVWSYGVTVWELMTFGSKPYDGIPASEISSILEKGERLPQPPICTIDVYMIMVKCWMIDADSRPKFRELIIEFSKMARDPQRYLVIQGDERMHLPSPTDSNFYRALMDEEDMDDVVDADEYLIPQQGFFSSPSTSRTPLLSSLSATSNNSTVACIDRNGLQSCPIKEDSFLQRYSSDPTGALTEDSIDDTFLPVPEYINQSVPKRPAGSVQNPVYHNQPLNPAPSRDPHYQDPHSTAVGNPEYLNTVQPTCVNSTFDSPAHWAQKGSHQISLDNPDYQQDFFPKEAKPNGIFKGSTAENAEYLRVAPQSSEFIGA
Excerpt: (§1) Cell lines are generated by transducing Ba/F3 cells with retroviruses containing vectors with EGFR WT, EGFR exon 20 NPG Ins D770_N771, EGFR exon 20 ASV Ins V769_D770, EGFR exon 20 SVD Ins D770_N771, or EGFR exon 20 FQEA Ins A763_V764 genes and a puromycin selection marker. Transduced cells are selected with puromycin for 7 days and are then be transferred into culture media without Interleukin 3 (IL3). EGFR WT cells are maintained with supplemental EGF. Surviving cells are confirmed to express EGFR by Western blot and maintained as a pool. The IC50 data are included in Table 6.
(§2) • 1.1 Cells are harvested from flask into cell culture medium and the cell number counted. • 1.2 Cells are diluted with culture medium to the desired density and 40 NL of cell suspension is added into each well of 384-well cell culture plate and the seeding density is 600 cells/well.
(§3) • 2.1 Test compounds are dissolved to 10 mM in a DMSO stock solution. […]
(§4) • 3.1 Plates are removed from incubators and equilibrated at room temperature for 15 minutes. • 3.2 Thaw the CellTiter Glo reagents and allow to equilibrate to room temperature before the experiment. • 3.3 Add 40 μL of CellTiter-Glo reagent into each well (at 1:1 to culture medium). Then place the plates at room temperature for 30 min followed by reading on EnVision.
(§5) • 4.1 Inhibition activity is calculated following the formula below: […]

[2] = target: T2, EGFR exon 20 SVD Ins D770_N771 (Homo sapiens, UniProt P00533, INS770SVD); test: Ba/F3 cell viability (CellTiter-Glo), EGFR exon 20 SVD insertion; settings: Ba/F3 cells expressing EGFR exon 20 SVD Ins D770_N771, 72 hours, read-out: BaF3 SVD IC50
T2 construct: expressed in transfected cells; host or cells: Ba/F3 (murine pro-B cells), retroviral transduction, puromycin selection, IL3 withdrawal
T2 sequence (P00533 with tags, fused parts or gaps INS770SVD): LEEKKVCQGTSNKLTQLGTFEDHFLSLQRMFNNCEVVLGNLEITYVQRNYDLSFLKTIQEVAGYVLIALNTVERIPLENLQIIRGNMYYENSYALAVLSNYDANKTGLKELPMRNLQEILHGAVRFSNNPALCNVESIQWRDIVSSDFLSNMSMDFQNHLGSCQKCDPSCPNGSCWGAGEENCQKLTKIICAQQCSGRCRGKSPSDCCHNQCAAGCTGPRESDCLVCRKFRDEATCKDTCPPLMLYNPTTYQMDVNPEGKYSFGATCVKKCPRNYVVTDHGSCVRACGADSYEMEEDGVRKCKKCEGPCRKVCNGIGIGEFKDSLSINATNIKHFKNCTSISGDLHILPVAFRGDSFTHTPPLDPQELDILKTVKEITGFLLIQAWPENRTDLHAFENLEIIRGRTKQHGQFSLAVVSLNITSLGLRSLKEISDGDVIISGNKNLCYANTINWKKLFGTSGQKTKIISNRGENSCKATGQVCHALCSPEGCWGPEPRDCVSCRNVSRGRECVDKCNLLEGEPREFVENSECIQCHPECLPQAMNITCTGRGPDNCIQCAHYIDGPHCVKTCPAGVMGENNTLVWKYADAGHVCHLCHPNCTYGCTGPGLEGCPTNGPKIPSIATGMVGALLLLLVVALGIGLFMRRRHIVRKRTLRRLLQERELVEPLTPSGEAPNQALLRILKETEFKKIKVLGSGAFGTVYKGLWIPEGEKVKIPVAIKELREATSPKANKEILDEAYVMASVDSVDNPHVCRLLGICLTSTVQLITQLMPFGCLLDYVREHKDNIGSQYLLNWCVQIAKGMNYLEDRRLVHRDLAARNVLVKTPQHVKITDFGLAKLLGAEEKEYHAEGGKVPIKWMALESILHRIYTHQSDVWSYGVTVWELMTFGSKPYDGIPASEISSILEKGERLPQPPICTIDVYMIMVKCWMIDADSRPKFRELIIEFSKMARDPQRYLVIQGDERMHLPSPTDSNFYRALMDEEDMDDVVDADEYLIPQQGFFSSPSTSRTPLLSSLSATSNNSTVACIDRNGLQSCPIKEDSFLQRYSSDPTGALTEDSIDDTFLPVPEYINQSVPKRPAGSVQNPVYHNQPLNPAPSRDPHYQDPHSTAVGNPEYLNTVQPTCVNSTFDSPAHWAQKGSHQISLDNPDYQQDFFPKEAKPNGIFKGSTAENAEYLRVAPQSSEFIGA
Excerpt: as §1, §2, §3, §4, §5

[3] = tested on: EGFR mutant versus EGFR WT; test: EGFR mutant potency and selectivity against EGFR WT, compared with the enantiomer; settings: relative to its enantiomer (compound 635 in WO 2022/066734)
Excerpt: as §1

EGFR WT = target: T3, EGFR WT (Homo sapiens, UniProt P00533); test: Ba/F3 cell viability (CellTiter-Glo), EGFR WT; settings: Ba/F3 cells expressing EGFR WT, supplemental EGF, 72 hours, read-out: BaF3 WT IC50
T3 construct: expressed in transfected cells; host or cells: Ba/F3 (murine pro-B cells), retroviral transduction; maintained with supplemental EGF
T3 sequence (P00533 25-1210): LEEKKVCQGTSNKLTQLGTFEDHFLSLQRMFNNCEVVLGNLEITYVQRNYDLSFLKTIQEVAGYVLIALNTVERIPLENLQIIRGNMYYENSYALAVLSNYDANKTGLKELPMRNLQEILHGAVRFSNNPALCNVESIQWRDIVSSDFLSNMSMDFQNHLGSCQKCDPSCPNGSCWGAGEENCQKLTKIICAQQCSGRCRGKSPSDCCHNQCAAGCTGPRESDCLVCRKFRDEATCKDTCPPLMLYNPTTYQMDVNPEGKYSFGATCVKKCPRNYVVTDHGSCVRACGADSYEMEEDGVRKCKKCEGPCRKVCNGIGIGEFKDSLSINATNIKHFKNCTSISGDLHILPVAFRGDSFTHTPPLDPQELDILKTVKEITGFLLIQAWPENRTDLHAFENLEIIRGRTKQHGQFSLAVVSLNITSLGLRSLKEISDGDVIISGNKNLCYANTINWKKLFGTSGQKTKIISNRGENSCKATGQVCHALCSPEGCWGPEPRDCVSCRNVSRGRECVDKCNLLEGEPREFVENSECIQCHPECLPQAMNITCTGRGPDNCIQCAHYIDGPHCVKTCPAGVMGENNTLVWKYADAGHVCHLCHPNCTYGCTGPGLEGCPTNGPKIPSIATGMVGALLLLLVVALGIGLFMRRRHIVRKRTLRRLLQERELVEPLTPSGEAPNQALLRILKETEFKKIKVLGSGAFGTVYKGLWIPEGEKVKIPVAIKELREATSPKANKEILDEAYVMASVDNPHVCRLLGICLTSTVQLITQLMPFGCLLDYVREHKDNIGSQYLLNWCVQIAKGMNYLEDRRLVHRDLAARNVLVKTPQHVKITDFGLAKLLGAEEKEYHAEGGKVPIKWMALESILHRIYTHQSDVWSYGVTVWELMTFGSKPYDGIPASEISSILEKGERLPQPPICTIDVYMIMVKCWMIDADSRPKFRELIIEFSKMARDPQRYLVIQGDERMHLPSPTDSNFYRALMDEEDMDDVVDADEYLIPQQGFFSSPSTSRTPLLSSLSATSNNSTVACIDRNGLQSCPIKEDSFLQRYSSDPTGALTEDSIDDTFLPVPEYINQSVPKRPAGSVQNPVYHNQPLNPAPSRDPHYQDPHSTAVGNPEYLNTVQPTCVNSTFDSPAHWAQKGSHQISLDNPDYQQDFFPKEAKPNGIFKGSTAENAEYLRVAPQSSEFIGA
Excerpt: as §1, §2, §3, §4, §5

[4] = target: T4, EGFR exon 20 NPG Ins D770_N771 (Homo sapiens, UniProt P00533, INS770NPG); test: Ba/F3 cell viability (CellTiter-Glo), EGFR exon 20 NPG insertion; settings: Ba/F3 cells expressing EGFR exon 20 NPG Ins D770_N771, 72 hours, read-out: BaF3 NPG IC50
T4 construct: expressed in transfected cells; host or cells: Ba/F3 (murine pro-B cells), retroviral transduction, puromycin selection, IL3 withdrawal
Excerpt: as §1, §2, §3, §4, §5

[5] = target: EGFR phosphorylation (pEGFR) in CUTO14 cells (Homo sapiens, UniProt P00533, INS769ASV); test: EGFR phosphorylation (pEGFR) AlphaLISA in CUTO14 cells; settings: 2 hours
Sequence of EGFR phosphorylation (pEGFR) in CUTO14 cells (P00533 with tags, fused parts or gaps INS769ASV): as the sequence (P00533 with tags, fused parts or gaps INS769ASV) above
Excerpt: EGFR mutant Ba/F3 cells were generated by transduction with retrovirus containing vectors expressing EGFR exon 20 NPG Ins D770_N771, EGFR exon 20 ASV Ins V769_D770, or EGFR exon 20 SVD Ins D770_N771 genes along with a puromycin selection marker. Transduced cells are selected with puromycin for 7 days and are then be transferred into culture media without Interleukin 3 (IL3). Surviving cells are confirmed to express EGFR by Western blot and maintained as a pool. CUTO14 cells were obtained from Dr. Robert C. Doebele at the University of Colorado. The IC50 data are included in Table 6.
as §2, with “μL” for “NL”, “50K cells/well (Ba/F3) or 12.5K cells/well (CUTO14).” for “600 cells/well.”
• 2.1 Test compounds are dissolved to 10 mM in a DMSO stock solution. 45 μL of stock solution is transferred to a 384 polypropylene plate (pp-plate). […] Mix well on the shaker, seal and wrap in aluminum foil and incubate 1.5 hrs at room temperature in the dark • 3.5 Transfer 18.5 μL mixture to OptiPlate 384, and read using an Envision.

IC50 [5]: < 100 nM
SMILES: COc1c(Cl)cccc1Nc1c(-c2ccncc2C#C[C@@]2(C)CCCN2C(=O)/C=C/CN(C)C)[nH]c2cc[nH]c(=O)c12 [(I), 3-[(3-chloro-2-methoxyphenyl)amino]-2-(3-{2-[(2R)-1-[(2E)-4-(dimethylamino)but-2-enoyl]-2-methylpyrrolidin-2-yl]ethynyl}pyridin-4-yl)-1H,5H-pyrrolo[3,2-c]pyridin-4-one]
IC50 [1]: < 100 nM | IC50 [2]: < 100 nM | EGFR mutant potency and selectivity against EGFR WT [3]: greater than the potency and selectivity exhibited by its enantiomer | IC50 (EGFR WT): ≥ 1000 nM | IC50 [4]: < 100 nM
